# According to patent publication US7723289B2, “PIF tetrapeptides” (BioIncept, LLC, priority 2003, dated 2010):
# Columns and labels:
# [1] = tested on: PBMC; test: PIF and analogues on release of cytokines +/- platebound mAbCD3 (Table 4); format: cell-based; set-up: IL-1β / TNFa / IL-4 / IL-5 / IL-6 / IL-10 / GM-CSM / IFN-g: unit not given here
# [2] = tested on: epithelial cells; test: PIF binding to endometrial epithelial cells (MaBCD2 staining); set-up: species or system human; settings: compared to non-relevant IgG
# Protocol: (§1) In addition, to compare the recovery of β-3 integrin expression with PIF effects described after cultured hEEC in a free-fetal bovine serum (FBS) medium some cells were cultured again in FBS-medium. […] PIF binding to epithelial cells was also examined. Binding was examined using MaBCD2 staining.
# [3] = tested on: CD3; test: CD3 expression in PBMC (flow cytometry, MAbCD3-PE); format: cell-based; settings: PBMC exposed 3 days, 2-200 nM
# Protocol: Fluorescent PIF peptides bind to immune cell membranes following activation. […] CD69 is expressed during activation of lymphocytes and monocytes, and is a marker of NK cells activation. CD25 is the receptor for IL-2, and a known activation marker as well. […] The expression of CD3 in PBMC was examined following exposure for 3 days to sPIF-1(15) (SEQ ID NO:13) (2-200 nM) using 20 ul MAbCD3-PE (BD).
# [4] = tested on: CD2; test: CD2 expression in PBMC (flow cytometry, CD2MAb-FITC); format: cell-based; settings: PBMC exposed 3 days
# [5] = tested on: β-3 integrin; test: β-3 integrin expression by human endometrial epithelial cells (flow cytometry, immunocytochemistry); format: cell-based; settings: hEEC, 2-day culture, 1-500 nM
# Protocol: Human endometrial tissues were digested and stromal and epithelial cells (hEEC) isolated and cultured with a fetal bovine serum (FBS)-enriched medium until confluent layers were obtained. After that the cells were cultured for two more days in a FBS free-medium followed by a further 2-day culture in the same medium containing PIF peptides (1-500 nM).
# as §1
# [6] = tested on: PBMC; test: Time-dependent cytokine secretion by PBMC (Table 3); format: cell-based, human; settings: substance alone
# Protocol: Detailed time dependent and multiple controls were used the secretion of several cytokines by PBMC (IL-2, IL-5, IL-8, GM-CSF, IL-4, IL-10, TNF-α, IFN-γβ, IL-1 and IL-6) were measured. […] By 4 hours, sPIF-1 blocked TNF alpha with recovery by 24 hours. Also INFgamma secretion initiated only after 48 hours. […] Effects on cytokines was already noted at 0.7 nM. Similar effects were found also with other mitogens LPS and PHA when PIF-1 was tested.
# [7] = tested on: PBMC; test: PIF-1 effects on cytokine expression in patient and control PBMC (Table 7); format: cell-based, human; settings: PHA +, PIF-115 −
substance,measurement,setting,value
PGSA [sPIF-1(4)],GM-CSM,"[1]; C- (platebound mAbCD3), /1",13.7
same,IFN-g,"[1]; C- (platebound mAbCD3), /1",81.3
same,IL-1β,"[1]; C- (platebound mAbCD3), /1",6.0
same,IL-2,"[1]; C- (platebound mAbCD3), /1",24.0
same,IL-4,"[1]; C- (platebound mAbCD3), /1",0
same,IL-5,"[1]; C- (platebound mAbCD3), /1",0
same,IL-6,"[1]; C- (platebound mAbCD3), /1",233.6
same,IL-8,"[1]; C- (platebound mAbCD3), /1",>5000
same,IL-10,"[1]; C- (platebound mAbCD3), /1",44.1
same,TNFa,"[1]; C- (platebound mAbCD3), /1",68.3
same,GM-CSM,"[1]; C- (platebound mAbCD3), /50",27.3
same,IFN-g,"[1]; C- (platebound mAbCD3), /50",145.4
same,IL-1β,"[1]; C- (platebound mAbCD3), /50",7.3
same,IL-2,"[1]; C- (platebound mAbCD3), /50",36.2
same,IL-4,"[1]; C- (platebound mAbCD3), /50",17.8
same,IL-5,"[1]; C- (platebound mAbCD3), /50",8.6
same,IL-6,"[1]; C- (platebound mAbCD3), /50",270.1
same,IL-8,"[1]; C- (platebound mAbCD3), /50",>5000
same,IL-10,"[1]; C- (platebound mAbCD3), /50",82.5
same,TNFa,"[1]; C- (platebound mAbCD3), /50",299.9
same,GM-CSM,"[1]; U- (no mAbCD3), /1",0
same,IFN-g,"[1]; U- (no mAbCD3), /1",0
same,IL-1β,"[1]; U- (no mAbCD3), /1",0
same,IL-2,"[1]; U- (no mAbCD3), /1",0
same,IL-4,"[1]; U- (no mAbCD3), /1",0
same,IL-5,"[1]; U- (no mAbCD3), /1",0
same,IL-6,"[1]; U- (no mAbCD3), /1",32.9
same,IL-8,"[1]; U- (no mAbCD3), /1",809.3
same,IL-10,"[1]; U- (no mAbCD3), /1",0
same,TNFa,"[1]; U- (no mAbCD3), /1",0
same,GM-CSM,"[1]; U- (no mAbCD3), /50",0
same,IFN-g,"[1]; U- (no mAbCD3), /50",0
same,IL-1β,"[1]; U- (no mAbCD3), /50",0
same,IL-2,"[1]; U- (no mAbCD3), /50",0
same,IL-4,"[1]; U- (no mAbCD3), /50",0
same,IL-5,"[1]; U- (no mAbCD3), /50",0
same,IL-6,"[1]; U- (no mAbCD3), /50",33.4
same,IL-8,"[1]; U- (no mAbCD3), /50",1079.9
same,IL-10,"[1]; U- (no mAbCD3), /50",0
same,TNFa,"[1]; U- (no mAbCD3), /50",0
same,effect on IL6 and 8,[1]; non-stimulated PBMC,stimulatory effect
SGIVIYQYMDDRYVGSDL [sPIF-3(18)],binding to epithelial cells,[2],mild
SQAVQEHASTNMG [sPIF-2(13)],increase in CD3 receptor expression,[3],180-230%
same,increase in CD2 expression,[4],125-160%
same,increase in the expression of β-3-epithelial integrin,[5],up to a four-fold increase
same,binding to epithelial cells,[2],mild
"phytohemmaglutinin [PHA, reference compound]",GM-CSF,[6]; 4 h post induction,60.4 pg/mL
same,IFN-y,[6]; 4 h post induction,0 pg/mL
same,IL-1β,[6]; 4 h post induction,891.2 pg/mL
same,IL-2,[6]; 4 h post induction,28.7 pg/mL
same,IL-4,[6]; 4 h post induction,0 pg/mL
same,IL-5,[6]; 4 h post induction,0 pg/mL
same,IL-6,[6]; 4 h post induction,7045.0 pg/mL
same,IL-8,[6]; 4 h post induction,0 pg/mL
same,IL-10,[6]; 4 h post induction,13.3 pg/mL
same,TNF-α,[6]; 4 h post induction,18829.1 pg/mL
same,GM-CSF,[6]; 24 h post induction,60.0 pg/mL
same,IFN-y,[6]; 24 h post induction,1728.8 pg/mL
same,IL-1β,[6]; 24 h post induction,5010.5 pg/mL
same,IL-2,[6]; 24 h post induction,2800.6 pg/mL
same,IL-4,[6]; 24 h post induction,60.0 pg/mL
same,IL-5,[6]; 24 h post induction,125.0 pg/mL
same,IL-6,[6]; 24 h post induction,>5200 pg/mL
same,IL-8,[6]; 24 h post induction,>6330 pg/mL
same,IL-10,[6]; 24 h post induction,1411.5 pg/mL
same,TNF-α,[6]; 24 h post induction,>11390 pg/mL
same,GM-CSF,[6]; 48 h post induction,0 pg/mL
same,IFN-y,[6]; 48 h post induction,0 pg/mL
same,IL-1β,[6]; 48 h post induction,0 pg/mL
same,IL-2,[6]; 48 h post induction,0 pg/mL
same,IL-4,[6]; 48 h post induction,0 pg/mL
same,IL-5,[6]; 48 h post induction,0 pg/mL
same,IL-6,[6]; 48 h post induction,0 pg/mL
same,IL-8,[6]; 48 h post induction,5634.0 pg/mL
same,IL-10,[6]; 48 h post induction,0 pg/mL
same,TNF-α,[6]; 48 h post induction,0 pg/mL
same,GM-CSF,[6]; 96 h post induction,0 pg/mL
same,IFN-y,[6]; 96 h post induction,0 pg/mL
same,IL-1β,[6]; 96 h post induction,0 pg/mL
same,IL-2,[6]; 96 h post induction,0 pg/mL
same,IL-4,[6]; 96 h post induction,0 pg/mL
same,IL-5,[6]; 96 h post induction,0 pg/mL
same,IL-6,[6]; 96 h post induction,0 pg/mL
same,IL-8,[6]; 96 h post induction,>6330 pg/mL
same,IL-10,[6]; 96 h post induction,0 pg/mL
same,TNF-α,[6]; 96 h post induction,0 pg/mL
same,IL-10,[7]; control,25.72 % of total PBMC in scatter gate
same,TH1/TH2,[7]; control,0.68
same,TNFα,[7]; control,17.43 % of total PBMC in scatter gate
same,IL-10,[7]; patient,24.76 % of total PBMC in scatter gate
same,TH1/TH2,[7]; patient,0.57
same,TNFα,[7]; patient,14.23 % of total PBMC in scatter gate
